# Measurements as given in patent publication US20230085307A1, “PYRIDAZINONE COMPOUND AND HERBICIDE” (NISSAN CHEMICAL CORPORATION, priority 2019, published 2023).
# How the values were obtained:
# wild oat [1] = assay: Test Example 5: herbicidal effect by foliage application, plastic box (Table 20, symbol I); type: in vivo, wild oat (Avena fatua); conditions: foliage application
# Procedure, shortened: (§1)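 Plants sown in sterilized diluvial soil and grown 14 days in a greenhouse at 25° C to 30° C, then sprayed on the foliage with the compound's emulsion diluted in water to a predetermined herbicide amount. Injury to weeds and crops scored three weeks after application on a visual rating scale.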
# late watergrass = assay: Test Example 2: herbicidal activity, application during weed generation under submerged conditions (Table 17, symbol A); type: in vivo, late watergrass (Echinochloa oryzicola); conditions: AAH 320 g/ha; application during weed generation, submerged conditions
# Procedure, shortened: (§2)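 Herbicide emulsion, diluted with water to the chosen amount, is applied onto 4 cm floodwater over alluvial soil where the weeds were co-sown and raised at 25–30° C. Application timing: 1–2 leaves. Assessment: three weeks afterwards.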
# Chinese sprangletop = assay: Test Example 3: herbicidal effect by foliage application, Wagner pot (Table 18, symbol D); type: in vivo, chinese sprangletop (Leptochloa chinensis); conditions: for herbicidal effect on D (Chinese sprangletop), rating 0-5: 320 g/ha
# Procedure, shortened: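 Plants were sown in alluvial soil held under 0.1–0.5 cm standing water and grown 14 days in a greenhouse at 25–30 °C. An emulsifiable formulation, water-diluted to the set dose, was then sprayed onto the foliage, and effects were scored three weeks later using previously defined criteria.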
# persian speedwell [2] = assay: Test Example 5: herbicidal effect by foliage application, plastic box (Table 20, symbol R); type: in vivo, Persian speedwell (Veronica persica); conditions: foliage application
# Procedure, shortened: as §1
# lambsquarters [3] = assay: Test Example 5: herbicidal effect by foliage application, plastic box (Table 20, symbol O); type: in vivo, lambsquarters (Chenopodium album); conditions: foliage application
# Procedure, shortened: as §1
# oval-leafed pondweed = assay: Test Example 2: herbicidal activity, application during weed generation under submerged conditions (Table 17, symbol C); type: in vivo, oval-leafed pondweed (Monochoria vaginalis); conditions: AAH 320 g/ha; application during weed generation, submerged conditions
# Procedure, shortened: as §2
# Japanese bulrush = assay: Test Example 1: herbicidal activity, application before weed generation under submerged conditions (Table 16, symbol B); type: in vivo, Japanese bulrush (Schoenoplectus juncoides); conditions: 320 g/ha applied herbicide
# Procedure, shortened: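 Alluvial soil was flooded to 4 cm depth, weed seeds were sown mixed and 2.5-leaf rice seedlings were transplanted. On sowing day, the compound's emulsion, diluted in water to a set dose, was applied to the water surface. Plants grew at 25–30 °C and were scored 0–5 after three weeks.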
# southern crabgrass = assay: Test Example 4: herbicidal effect by soil treatment (Table 19, symbol F); type: in vivo, southern crabgrass (Digitaria ciliaris); conditions: for herbicidal effect rating, F: southern crabgrass: 320 g/ha
# Procedure, shortened: (§3)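 Three weeks of greenhouse growth at 25° C. to 30° C. followed a uniform surface spray of water-diluted emulsion at a predetermined herbicide amount. Seeds had been sown beforehand under about 1.5 cm of sterilized diluvial soil. Grading followed criteria set out in an earlier test.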
# persian speedwell [4] = assay: Test Example 4: herbicidal effect by soil treatment (Table 19, symbol R); type: in vivo, Persian speedwell (Veronica persica); conditions: for herbicidal effect rating, R: persian speedwell: 320 g/ha
# Procedure, shortened: as §3
# windgrass [5] = assay: Test Example 4: herbicidal effect by soil treatment (Table 19, symbol L); type: in vivo, windgrass (Apera spica-venti); conditions: for herbicidal effect rating, L: windgrass: 320 g/ha
# Procedure, shortened: as §3
# barnyard grass = assay: Test Example 5: herbicidal effect by foliage application, plastic box (Table 20, symbol H); type: in vivo, barnyard grass (Echinochloa crus-galli); conditions: foliage application
# Procedure, shortened: as §1
# velvetleaf = assay: Test Example 5: herbicidal effect by foliage application, plastic box (Table 20, symbol M); type: in vivo, velvetleaf (Abutilon theophrasti); conditions: foliage application
# Procedure, shortened: as §1
# Italian ryegrass = assay: Test Example 4: herbicidal effect by soil treatment (Table 19, symbol K); type: in vivo, Italian ryegrass (Lolium multiflorum); conditions: for herbicidal effect rating, K: Italian ryegrass: 320 g/ha
# Procedure, shortened: as §3
# windgrass [6] = assay: Test Example 5: herbicidal effect by foliage application, plastic box (Table 20, symbol L); type: in vivo, windgrass (Apera spica-venti); conditions: foliage application
# Procedure, shortened: as §1
# wild oat [7] = assay: Test Example 4: herbicidal effect by soil treatment (Table 19, symbol I); type: in vivo, wild oat (Avena fatua); conditions: for herbicidal effect rating, I: wild oat: 320 g/ha
# Procedure, shortened: as §3
# blackgrass = assay: Test Example 4: herbicidal effect by soil treatment (Table 19, symbol J); type: in vivo, blackgrass (Alopecurus myosuroides); conditions: for herbicidal effect rating, J: blackgrass: 320 g/ha
# Procedure, shortened: as §3
# lambsquarters [8] = assay: Test Example 4: herbicidal effect by soil treatment (Table 19, symbol O); type: in vivo, lambsquarters (Chenopodium album); conditions: for herbicidal effect rating, O: lambsquarters: 320 g/ha
# Procedure, shortened: as §3
# [9] = AAH 320 g/ha, evaluated three weeks after application
# [10] = amount of applied herbicide 320 g/ha
# [11] = 320 g/ha, 3 weeks after application
# [12] = AAH 320 g/ha, three weeks after application
# [13] = 320 g/ha, evaluated three weeks after application
smiles,measurement,setting,value
CCCC(=O)Oc1c(C)nn(C)c(=O)c1-c1c(-c2ccc(F)c(F)c2)sc2ccc(F)cc12 [2-345],"I: wild oat, herbicidal effect (criteria 0-5)",wild oat [1]; [9],3 (Herbicidal rate of 40% or more and less than 70%)
same,"herbicidal effect rating, A: late watergrass",late watergrass,5 (Herbicidal rate of 90% or more (almost completely withered))
same,herbicidal effect on D: Chinese sprangletop,Chinese sprangletop; [10],5 (Herbicidal rate of 90% or more (almost completely withered))
same,"R: persian speedwell, herbicidal effect (criteria 0-5)",persian speedwell [2]; [9],5 (Herbicidal rate of 90% or more (almost completely withered))
same,"O: lambsquarters, herbicidal effect (criteria 0-5)",lambsquarters [3]; [9],5 (Herbicidal rate of 90% or more (almost completely withered))
same,"herbicidal effect rating, C: oval-leafed pondweed",oval-leafed pondweed,4 (Herbicidal rate of 70% or more and less than 90%)
same,Herbicidal effect on B: Japanese bulrush (grade 0-5),Japanese bulrush,4 (Herbicidal rate of 70% or more and less than 90%)
same,herbicidal effect on F: southern crabgrass,southern crabgrass; [10],3 (Herbicidal rate of 40% or more and less than 70%)
same,herbicidal effect on R: persian speedwell,persian speedwell [4]; [10],5 (Herbicidal rate of 90% or more (almost completely withered))
same,herbicidal effect on L: windgrass,windgrass [5]; [10],0 (Herbicidal rate of 5% or less (almost no effect))
same,"H: barnyard grass, herbicidal effect (criteria 0-5)",barnyard grass; [9],5 (Herbicidal rate of 90% or more (almost completely withered))
same,"M: velvetleaf, herbicidal effect (criteria 0-5)",velvetleaf; [9],5 (Herbicidal rate of 90% or more (almost completely withered))
same,herbicidal effect on K: Italian ryegrass,Italian ryegrass; [10],0 (Herbicidal rate of 5% or less (almost no effect))
same,"L: windgrass, herbicidal effect (criteria 0-5)",windgrass [6]; [9],1 (Herbicidal rate of 5% or more and less than 20%)
same,herbicidal effect on I: wild oat,wild oat [7]; [10],1 (Herbicidal rate of 5% or more and less than 20%)
same,herbicidal effect on J: blackgrass,blackgrass; [10],0 (Herbicidal rate of 5% or less (almost no effect))
same,herbicidal effect on O: lambsquarters,lambsquarters [8]; [10],4 (Herbicidal rate of 70% or more and less than 90%)
CCCC(=O)Oc1c(C)nn(C)c(=O)c1-c1c(-c2ccc(OC)cc2)sc2ccc(F)cc12 [2-027],effect on wild oat (I),wild oat [1]; [11],4 (Herbicidal rate of 70% or more and less than 90%)
same,"herbicidal effect rating, A: late watergrass",late watergrass,3 (Herbicidal rate of 40% or more and less than 70%)
same,"herbicidal effect on D (Chinese sprangletop), rating 0-5",Chinese sprangletop,4 (Herbicidal rate of 70% or more and less than 90%)
same,effect on persian speedwell (R),persian speedwell [2]; [11],5 (Herbicidal rate of 90% or more (almost completely withered))
same,effect on lambsquarters (O),lambsquarters [3]; [11],5 (Herbicidal rate of 90% or more (almost completely withered))
same,"herbicidal effect rating, C: oval-leafed pondweed",oval-leafed pondweed,5 (Herbicidal rate of 90% or more (almost completely withered))
same,Herbicidal effect on B: Japanese bulrush (grade 0-5),Japanese bulrush,5 (Herbicidal rate of 90% or more (almost completely withered))
same,"herbicidal effect rating, F: southern crabgrass",southern crabgrass,3 (Herbicidal rate of 40% or more and less than 70%)
same,"herbicidal effect rating, R: persian speedwell",persian speedwell [4],5 (Herbicidal rate of 90% or more (almost completely withered))
same,"herbicidal effect rating, L: windgrass",windgrass [5],0 (Herbicidal rate of 5% or less (almost no effect))
same,effect on barnyard grass (H),barnyard grass; [11],5 (Herbicidal rate of 90% or more (almost completely withered))
same,effect on velvetleaf (M),velvetleaf; [11],5 (Herbicidal rate of 90% or more (almost completely withered))
same,"herbicidal effect rating, K: Italian ryegrass",Italian ryegrass,4 (Herbicidal rate of 70% or more and less than 90%)
same,effect on windgrass (L),windgrass [6]; [11],0 (Herbicidal rate of 5% or less (almost no effect))
same,"herbicidal effect rating, I: wild oat",wild oat [7],2 (Herbicidal rate of 20% or more and less than 40%)
same,"herbicidal effect rating, J: blackgrass",blackgrass,0 (Herbicidal rate of 5% or less (almost no effect))
same,"herbicidal effect rating, O: lambsquarters",lambsquarters [8],5 (Herbicidal rate of 90% or more (almost completely withered))
CCCC(=O)Oc1c(C)nn(C)c(=O)c1-c1c(-c2ccc([N+](=O)[O-])cc2)sc2ccccc12 [1-152],"I: wild oat, herbicidal effect",wild oat [1]; [12],0 (Herbicidal rate of 5% or less (almost no effect))
same,"herbicidal effect rating, A: late watergrass",late watergrass,3 (Herbicidal rate of 40% or more and less than 70%)
same,"herbicidal effect on D (Chinese sprangletop), rating 0-5",Chinese sprangletop,5 (Herbicidal rate of 90% or more (almost completely withered))
same,"R: persian speedwell, herbicidal effect",persian speedwell [2]; [12],5 (Herbicidal rate of 90% or more (almost completely withered))
same,"O: lambsquarters, herbicidal effect",lambsquarters [3]; [12],4 (Herbicidal rate of 70% or more and less than 90%)
same,"herbicidal effect rating, C: oval-leafed pondweed",oval-leafed pondweed,0 (Herbicidal rate of 5% or less (almost no effect))
same,Herbicidal effect on B: Japanese bulrush (grade 0-5),Japanese bulrush,3 (Herbicidal rate of 40% or more and less than 70%)
same,"F: southern crabgrass, herbicidal effect rating",southern crabgrass; AAH 320 g/ha,1 (Herbicidal rate of 5% or more and less than 20%)
same,"R: persian speedwell, herbicidal effect rating",persian speedwell [4]; AAH 320 g/ha,3 (Herbicidal rate of 40% or more and less than 70%)
same,"L: windgrass, herbicidal effect rating",windgrass [5]; AAH 320 g/ha,0 (Herbicidal rate of 5% or less (almost no effect))
same,"H: barnyard grass, herbicidal effect",barnyard grass; [12],4 (Herbicidal rate of 70% or more and less than 90%)
same,"M: velvetleaf, herbicidal effect",velvetleaf; [12],5 (Herbicidal rate of 90% or more (almost completely withered))
same,"K: Italian ryegrass, herbicidal effect rating",Italian ryegrass; AAH 320 g/ha,0 (Herbicidal rate of 5% or less (almost no effect))
same,"L: windgrass, herbicidal effect",windgrass [6]; [12],0 (Herbicidal rate of 5% or less (almost no effect))
same,"I: wild oat, herbicidal effect rating",wild oat [7]; AAH 320 g/ha,0 (Herbicidal rate of 5% or less (almost no effect))
same,"J: blackgrass, herbicidal effect rating",blackgrass; AAH 320 g/ha,0 (Herbicidal rate of 5% or less (almost no effect))
same,"O: lambsquarters, herbicidal effect rating",lambsquarters [8]; AAH 320 g/ha,0 (Herbicidal rate of 5% or less (almost no effect))
COCCOc1ccc(-c2sc3ccc(F)cc3c2-c2c(O)c(C)nn(C)c2=O)cc1 [2-056],herbicidal effect on I: wild oat,wild oat [1]; [13],4 (Herbicidal rate of 70% or more and less than 90%)
same,"herbicidal effect rating, A: late watergrass",late watergrass,3 (Herbicidal rate of 40% or more and less than 70%)
same,"herbicidal effect on D (Chinese sprangletop), rating 0-5",Chinese sprangletop,5 (Herbicidal rate of 90% or more (almost completely withered))
same,herbicidal effect on R: persian speedwell,persian speedwell [2]; [13],5 (Herbicidal rate of 90% or more (almost completely withered))
same,herbicidal effect on O: lambsquarters,lambsquarters [3]; [13],5 (Herbicidal rate of 90% or more (almost completely withered))
same,"herbicidal effect rating, C: oval-leafed pondweed",oval-leafed pondweed,3 (Herbicidal rate of 40% or more and less than 70%)
same,Herbicidal effect on B: Japanese bulrush (grade 0-5),Japanese bulrush,5 (Herbicidal rate of 90% or more (almost completely withered))
same,"herbicidal effect rating, F: southern crabgrass",southern crabgrass,5 (Herbicidal rate of 90% or more (almost completely withered))
same,"herbicidal effect rating, R: persian speedwell",persian speedwell [4],5 (Herbicidal rate of 90% or more (almost completely withered))
same,"herbicidal effect rating, L: windgrass",windgrass [5],0 (Herbicidal rate of 5% or less (almost no effect))
same,herbicidal effect on H: barnyard grass,barnyard grass; [13],5 (Herbicidal rate of 90% or more (almost completely withered))
same,herbicidal effect on M: velvetleaf,velvetleaf; [13],5 (Herbicidal rate of 90% or more (almost completely withered))
same,"herbicidal effect rating, K: Italian ryegrass",Italian ryegrass,0 (Herbicidal rate of 5% or less (almost no effect))
same,herbicidal effect on L: windgrass,windgrass [6]; [13],4 (Herbicidal rate of 70% or more and less than 90%)
same,"herbicidal effect rating, I: wild oat",wild oat [7],0 (Herbicidal rate of 5% or less (almost no effect))
same,"herbicidal effect rating, J: blackgrass",blackgrass,0 (Herbicidal rate of 5% or less (almost no effect))
same,"herbicidal effect rating, O: lambsquarters",lambsquarters [8],5 (Herbicidal rate of 90% or more (almost completely withered))
